Data: patent publication US11596639B2, “Substituted indole Mcl-1 inhibitors” (Vanderbilt University, priority 2016, dated 2023)
Like-named read-outs stand apart in the source and are kept apart here.

Experiments:
[1] = system: H929 human cancer cell lines; test: Cellular viability / proliferation (Cell TiterGlo, 72 h); assay type: cell-based
How it was run: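 Cells were seeded at 1,000 cells/well in medium with 10% FBS and dosed 24 h later with a 2-fold serial dilution of compound (top concentration 50 μM, final DMSO <1%).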

Mcl-1 = Mcl-1 (Homo sapiens (Human), UniProt Q07820); test: TR-FRET binding assay, FITC-Bak peptide and MBP-tagged Mcl-1; conditions: read-out: Ki for Inhibition of Mcl-1 by TR-FRET assay
Chain of Mcl-1 (Q07820 172-327): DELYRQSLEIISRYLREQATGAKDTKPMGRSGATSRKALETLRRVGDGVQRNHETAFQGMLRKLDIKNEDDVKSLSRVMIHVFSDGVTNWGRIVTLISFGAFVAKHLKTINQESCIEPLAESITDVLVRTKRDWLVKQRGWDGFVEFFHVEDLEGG
Method: Compounds are diluted in DMSO in a 16-point, semilog serial dilution scheme. […] The plate was mixed and incubated for 3 hours at room temperature. […] TR-FRET signal is plotted and IC50 and Ki values are calculated in the same manner as the fluorescence polarization anisotropy based competition assays.

[2] = Homo sapiens, NCI-H929, 72 h, read-out: GI50 on cellular proliferation of H929 human cancer cell lines, H929 cells, 72 h, Cell TiterGlo, 10% FBS

SMILES: Cc1cc(OCCCc2c3n(c4c(-c5c(C)nn(C)c5C)c(Cl)ccc24)[C@H](C)CN(c2cn(C)c4ccc(-c5nc6c(C)cccn6n5)cc24)C3=O)cc(C)c1Cl [Example 698, (R)-7-Chloro-10-(3-(4-chloro-3,5-dimethylphenoxy)propyl)-4-methyl-2-(1-methyl-5-(8-methyl-[1,2,4]triazolo[1,5-a]pyridin-2-yl)-1H-indol-3-yl)-6-(1,3,5-trimethyl-1H-pyrazol-4-yl)-3,4-dihydropyrazino[1,2-a]indol-1(2H)-one]
- GI50 [1, 2]: 620 nM
- Ki (Mcl-1): 1.8 nM

SMILES: COCCOCCOc1cc(N2C[C@@H](C)n3c(c(CCCOc4cc(C)c(Cl)c(C)c4)c4ccc(Cl)c(-c5c(C)nn(C)c5C)c43)C2=O)c2c(c1)cc(C(=O)O)n2C [Example 633, (R)-7-(7-chloro-10-(3-(4-chloro-3,5-dimethylphenoxy)propyl)-4-methyl-1-oxo-6-(1,3,5-trimethyl-1H-pyrazol-4-yl)-3,4-dihydropyrazino[1,2-a]indol-2(1H)-yl)-5-(2-(2-methoxyethoxy)ethoxy)-1-methyl-1H-indole-2-carboxylic acid]
- GI50 ([1]; H929 cells, 72 h, Cell TiterGlo, 10% FBS, read-out: GI50 on cellular proliferation of H929 human cancer cell lines): < 200 nM
- Ki (Mcl-1): < 0.2 nM

SMILES: Cc1cccc(Cn2cc(C(=O)O)c3cccc(N4C[C@@H](C)n5c(c(CCCOc6cc(C)c(Cl)c(C)c6)c6ccc(Cl)c(-c7c(C)nn(C)c7C)c65)C4=O)c32)n1 (single isomer, unassigned) [Example 491]
- GI50 [1, 2]: 280 nM
- Ki (Mcl-1): < 0.2 nM

SMILES: COCCn1cc(N2C[C@@H](C)n3c(c(CCCOc4cc(C)c(Cl)c(C)c4)c4ccc(Cl)c(-c5c(C)nn(C)c5C)c43)C2=O)c2cc(-c3ncn(CCN4CCOCC4)n3)ccc21 [Example 615, (R)-7-Chloro-10-(3-(4-chloro-3,5-dimethylphenoxy)propyl)-2-(1-(2-methoxyethyl)-5-(1-(2-morpholinoethyl)-1H-1,2,4-triazol-3-yl)-1H-indol-3-yl)-4-methyl-6-(1,3,5-trimethyl-1H-pyrazol-4-yl)-3,4-dihydropyrazino[1,2-a]indol-1(2H)-one]
- GI50 [1, 2]: 370 nM
- Ki (Mcl-1): 9.6 nM

SMILES: Cc1cc(OCCCc2c3n(c4c(-c5c(C)nc(CN6CCN(C)CC6)nc5C)c(Cl)ccc24)[C@H](C)CN(c2cn(CCN(C)C)c4ccc(C(=O)O)cc24)C3=O)cc(C)c1Cl [Example 580, (R)-3-(7-chloro-10-(3-(4-chloro-3,5-dimethylphenoxy)propyl)-6-(4,6-dimethyl-2-((4-methylpiperazin-1-yl)methyl)pyrimidin-5-yl)-4-methyl-1-oxo-3,4-dihydropyrazino[1,2-a]indol-2(1H)-yl)-1-(2-(dimethylamino)ethyl)-1H-indole-5-carboxylic acid]
- GI50 [1, 2]: 960 nM
- Ki (Mcl-1): < 0.2 nM

SMILES: Cc1cc(N2C[C@@H](C)n3c(c(CCCOc4cc(C)c(Cl)c(C)c4)c4ccc(Cl)c(-c5c(C)n[nH]c5C)c43)C2=O)c2c(c1)cc(C(=O)O)n2Cc1ccccn1 [Example 719, (R)-7-(7-chloro-10-(3-(4-chloro-3,5-dimethylphenoxy)propyl)-6-(3,5-dimethyl-1H-pyrazol-4-yl)-4-methyl-1-oxo-3,4-dihydropyrazino[1,2-a]indol-2(1H)-yl)-5-methyl-1-(pyridin-2-ylmethyl)-1H-indole-2-carboxylic acid]
- GI50 [1, 2]: 640 nM
- Ki (Mcl-1): < 0.2 nM

SMILES: Cc1cccc(Cn2c(C(=O)O)cc3cc(OCCN(C)C)cc(N4C[C@@H](C)n5c(c(CCCOc6cc(C)c(Cl)c(C)c6)c6ccc(Cl)c(-c7c(C)ncnc7C)c65)C4=O)c32)n1 [Example 566, (R)-7-(7-chloro-10-(3-(4-chloro-3,5-dimethylphenoxy)propyl)-6-(4,6-dimethylpyrimidin-5-yl)-4-methyl-1-oxo-3,4-dihydropyrazino[1,2-a]indol-2(1H)-yl)-5-(2-(dimethylamino)ethoxy)-1-((6-methylpyridin-2-yl)methyl)-1H-indole-2-carboxylic acid]
- GI50 [1, 2]: 410 nM
- Ki (Mcl-1): < 0.2 nM

SMILES: Cc1cc(N2C[C@@H](C)n3c(c(CCCOc4cc(C)c(Cl)c(C)c4)c4ccc(Cl)c(-c5c(C)nn(C)c5C)c43)C2=O)c2c(c1)cc(C(=O)O)n2Cc1cccc(N2CCOCC2)n1 [Example 499, (R)-7-(7-chloro-10-(3-(4-chloro-3,5-dimethylphenoxy)propyl)-4-methyl-1-oxo-6-(1,3,5-trimethyl-1H-pyrazol-4-yl)-3,4-dihydropyrazino[1,2-a]indol-2(1H)-yl)-5-methyl-1-((6-morpholinopyridin-2-yl)methyl)-1H-indole-2-carboxylic acid]
- GI50 [1, 2]: 740 nM
- Ki (Mcl-1): 0.21 nM

SMILES: COc1ccc(N2C[C@@H](C)n3c(c(CCCOc4cc(C)c(Cl)c(C)c4)c4ccc(Cl)c(-c5c(C)nc(CN(C)C)nc5C)c43)C2=O)c2c1cc(C(=O)O)n2C [Example 483, (R)-7-(7-Chloro-10-(3-(4-chloro-3,5-dimethylphenoxy)propyl)-6-(2-((dimethylamino)methyl)-4,6-dimethylpyrimidin-5-yl)-4-methyl-1-oxo-3,4-dihydropyrazino[1,2-a]indol-2(1H)-yl)-4-methoxy-1-methyl-1H-indole-2-carboxylic acid]
- GI50 [1, 2]: 280 nM
- Ki (Mcl-1): < 0.2 nM

SMILES: Cc1cc(OCCCc2c3n(c4c(-c5c(C)nc(CN6CCN(C)C(=O)C6)nc5C)c(Cl)ccc24)[C@H](C)CN(c2cn(C)c4ccc(-c5ncn(C)n5)cc24)C3=O)cc(C)c1Cl [Example 663, (R)-7-chloro-10-(3-(4-chloro-3,5-dimethylphenoxy)propyl)-6-(4,6-dimethyl-2-((4-methyl-3-oxopiperazin-1-yl)methyl)pyrimidin-5-yl)-4-methyl-2-(1-methyl-5-(1-methyl-1H-1,2,4-triazol-3-yl)-1H-indol-3-yl)-3,4-dihydropyrazino[1,2-a]indol-1(2H)-one]
- GI50 [1, 2]: < 200 nM
- Ki (Mcl-1): 0.52 nM

SMILES: Cc1cc(OCCCc2c3n(c4c(-c5c(C)nn(C)c5C)c(Cl)ccc24)[C@H](C)CN(c2cn(CC(=O)N4CCCC4)c4ccc(-c5ncn(C)n5)cc24)C3=O)cc(C)c1Cl [Example 527, (R)-7-Chloro-10-(3-(4-chloro-3,5-dimethylphenoxy)propyl)-4-methyl-2-(5-(1-methyl-1H-1,2,4-triazol-3-yl)-1-(2-oxo-2-(pyrrolidin-1-yl)ethyl)-1H-indol-3-yl)-6-(1,3,5-trimethyl-1H-pyrazol-4-yl)-3,4-dihydropyrazino[1,2-a]indol-1(2H)-one]
- GI50 [1, 2]: 260 nM
- Ki (Mcl-1): 0.36 nM

SMILES: Cc1cc(OCCCc2c3n(c4c(-c5c(C)nn(C)c5C)c(Cl)ccc24)[C@H](C)CN(c2cc(CN4CCOCC4)cc4c(C(=O)O)cn(C)c24)C3=O)cc(C)c1Cl [Example 549, (R)-7-(7-chloro-10-(3-(4-chloro-3,5-dimethylphenoxy)propyl)-4-methyl-1-oxo-6-(1,3,5-trimethyl-1H-pyrazol-4-yl)-3,4-dihydropyrazino[1,2-a]indol-2(1H)-yl)-1-methyl-5-(morpholinomethyl)-1H-indole-3-carboxylic acid]
- GI50 [1, 2]: 340 nM
- Ki (Mcl-1): 0.34 nM

SMILES: COCCOCCn1c(C(=O)O)cc2cccc(N3C[C@@H](C)n4c(c(CCCOc5cc(C)c(Cl)c(C)c5)c5ccc(Cl)c(-c6c(C)nn(C)c6C)c54)C3=O)c21 [Example 634, (R)-7-(7-chloro-10-(3-(4-chloro-3,5-dimethylphenoxy)propyl)-4-methyl-1-oxo-6-(1,3,5-trimethyl-1H-pyrazol-4-yl)-3,4-dihydropyrazino[1,2-a]indol-2(1H)-yl)-1-(2-(2-methoxyethoxy)ethyl)-1H-indole-2-carboxylic acid]
- GI50 [1, 2]: 280 nM
- Ki (Mcl-1): < 0.2 nM

SMILES: C=C(C)c1ccnc(Cn2c(C(=O)O)cc3cc(C)cc(N4C[C@@H](C)n5c(c(CCCOc6cc(C)c(Cl)c(C)c6)c6ccc(Cl)c(-c7c(C)nn(C)c7C)c65)C4=O)c32)c1 [Example 641, (R)-7-(7-chloro-10-(3-(4-chloro-3,5-dimethylphenoxy)propyl)-4-methyl-1-oxo-6-(1,3,5-trimethyl-1H-pyrazol-4-yl)-3,4-dihydropyrazino[1,2-a]indol-2(1H)-yl)-5-methyl-1-((4-(prop-1-en-2-yl)pyridin-2-yl)methyl)-1H-indole-2-carboxylic acid]
- GI50 [1, 2]: 350 nM
- Ki (Mcl-1): < 0.2 nM

SMILES: Cc1cc(OCCCc2c3n(c4c(-c5c(C)nn(C)c5C)c(Cl)ccc24)[C@H](C)CN(c2cc(OC4CC[N+](C)(C)C4)cc4cc(C(=O)O)n(C)c24)C3=O)cc(C)c1Cl (stereo partly drawn) [Example 513, 3-((2-Carboxy-7-((R)-7-chloro-10-(3-(4-chloro-3,5-dimethylphenoxy)propyl)-4-methyl-1-oxo-6-(1,3,5-trimethyl-1H-pyrazol-4-yl)-3,4-dihydropyrazino[1,2-a]indol-2(1H)-yl)-1-methyl-1H-indol-5-yl)oxy)-1,1-dimethylpyrrolidin-1-ium 2,2,2-trifluoroacetate]
- GI50 [1, 2]: 5300 nM
- Ki (Mcl-1): < 0.2 nM

SMILES: Cc1cc(OCCCc2c3n(c4c(-c5c(C)nn(C)c5C)c(Cl)ccc24)[C@H](C)CN(c2cn(C)c4ccc(-n5ccnn5)cc24)C3=O)cc(C)c1Cl [Example 668, (R)-7-Chloro-10-(3-(4-chloro-3,5-dimethylphenoxy)propyl)-4-methyl-2-(1-methyl-5-(1H-1,2,3-triazol-1-yl)-1H-indol-3-yl)-6-(1,3,5-trimethyl-1H-pyrazol-4-yl)-3,4-dihydropyrazino[1,2-a]indol-1(2H)-one]
- GI50 [1, 2]: 1500 nM
- Ki (Mcl-1): 7.6 nM

SMILES: Cc1cc(N2C[C@@H](C)n3c(c(CCCOc4cc(C)c(Cl)c(C)c4)c4ccc(Cl)c(-c5c(C)nn(C)c5C)c43)C2=O)c2c(c1)cc(C(=O)O)n2Cc1cc(N2CCNCC2)ccn1 [Example 553, (R)-7-(7-chloro-10-(3-(4-chloro-3,5-dimethylphenoxy)propyl)-4-methyl-1-oxo-6-(1,3,5-trimethyl-1H-pyrazol-4-yl)-3,4-dihydropyrazino[1,2-a]indol-2(1H)-yl)-5-methyl-1-((4-(piperazin-1-yl)pyridin-2-yl)methyl)-1H-indole-2-carboxylic acid]
- GI50 [1, 2]: 2800 nM
- Ki (Mcl-1): < 0.2 nM
